IC50 and inhibition data for 15 compounds are collected here from patent publication US5834461A, “Tricyclic benzazepine vasopressin antagonists” (American Cyanamid Company, priority 1997, dated 1998).

The target in experiment [1] is vasopressin V1 receptor (rat liver plasma membranes) (Rattus norvegicus, UniProt P30560). The experiment can be described thus: Binding Assay to Rat Hepatic V1 Receptors. The note with it: for IC50: rat hepatic V1.
Experiment [2] addresses T1, rat kidney medullary V2 receptors (Rattus norvegicus, UniProt Q00788).
T1 construct: Medullary tissues from rat kidneys are dissected out; from tissue; host or cells: rat kidney medulla membranes
Kind of experiment: Binding Assay to Rat Kidney Medullary V2 Receptors. Conditions: for IC50: rat kidney medullary V2; for inhibition at 10 µM: rat kidney, read-out: V2, % at concentration in brackets. The method in brief:
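Competition binding: [3H]AVP at 0.8 nM, test compounds from 50% DMSO, and membranes from rat kidney medulla, left 120 min on the bench. Filtration then liquid scintillation counting measured bound ligand; 1.0 μM unlabeled ligand set non-specific binding.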

T1 sequence (Q00788 whole entry): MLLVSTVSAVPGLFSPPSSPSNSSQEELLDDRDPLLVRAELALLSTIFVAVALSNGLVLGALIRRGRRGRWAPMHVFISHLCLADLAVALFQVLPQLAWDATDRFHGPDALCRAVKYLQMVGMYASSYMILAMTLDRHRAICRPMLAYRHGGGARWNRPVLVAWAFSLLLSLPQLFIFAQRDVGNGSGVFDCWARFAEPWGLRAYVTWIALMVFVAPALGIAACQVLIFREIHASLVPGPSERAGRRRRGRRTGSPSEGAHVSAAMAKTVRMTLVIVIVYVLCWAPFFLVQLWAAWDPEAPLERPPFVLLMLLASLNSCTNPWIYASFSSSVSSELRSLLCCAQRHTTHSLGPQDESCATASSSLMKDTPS
vasopressin V1 receptor (rat liver plasma membranes), sequence (P30560 whole entry): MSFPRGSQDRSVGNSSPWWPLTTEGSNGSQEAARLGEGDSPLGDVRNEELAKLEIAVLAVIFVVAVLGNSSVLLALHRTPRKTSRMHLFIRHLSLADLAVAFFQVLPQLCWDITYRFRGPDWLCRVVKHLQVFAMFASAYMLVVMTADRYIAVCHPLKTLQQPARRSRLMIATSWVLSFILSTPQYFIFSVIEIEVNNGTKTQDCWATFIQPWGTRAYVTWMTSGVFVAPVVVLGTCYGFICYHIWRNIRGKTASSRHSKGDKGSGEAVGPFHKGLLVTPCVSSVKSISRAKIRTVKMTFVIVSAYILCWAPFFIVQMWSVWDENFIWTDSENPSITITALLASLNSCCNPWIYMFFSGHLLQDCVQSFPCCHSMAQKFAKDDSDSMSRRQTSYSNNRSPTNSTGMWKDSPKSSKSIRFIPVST

Usually IC50 stands for the concentration that inhibits the measured activity by half. Read a high IC50 as lower potency. With `Cc1ccccc1C(=O)Nc1ccc(C(=O)N2Cc3ccccc3Cc3ccccc32)cc1` [Example 2, N-[4-[(6,11-Dihydro-5H-dibenz[b,e]azepin-5-yl)carbonyl]phenyl]-2-methylbenzamide], the half-inhibitory concentration (IC50) in experiment [1] worked out at 150 nM; in experiment [2] it was 68 nM.
Take `Cc1ccccc1C(=O)Nc1ccc(C(=O)N2Cc3ccccc3-c3ccccc32)cc1` [Example 5, 2-Methyl-N-[4-[(5(6H)-phenanthridinyl)carbonyl]phenyl]benzamide]: the IC50 was 56 nM in experiment [1] and 29 nM in experiment [2].
The corresponding values for `O=C(Nc1ccc(C(=O)N2Cc3ccccc3Cc3ccccc32)cc1)c1cc(Cl)cc(Cl)c1` [Example 251, N-(4-[(6,11-Dihydro-5H-dibenz[b,e]azepin-5-yl)-carbonyl]phenyl]-3,5-dichlorobenzamide] are 1500 nM and 140 nM.
The corresponding values for `O=C(Nc1ccc(C(=O)N2Cc3ccccc3Cc3ccccc32)cc1)c1cccc(Cl)c1Cl` [Example 253, N-[4-[(6,11-Dihydro-5H-dibenz[b,e]azepin-5-yl)-carbonyl]phenyl]-2,3-dichlorobenzamide] are 310 nM and 190 nM.
The corresponding values for `O=C(Nc1ccc(C(=O)N2Cc3ccccc3Cc3ccccc32)cc1)C1CC=CCC1` (centres unmarked) [Example 255, N-[4-[(6,11-Dihydro-5H-dibenz[b,e]azepin-5-yl)-carbonyl]phenyl]-3-cyclohexene-1-carboxamide] are 27 nM and 39 nM.
Regarding `Cc1ccccc1C(=O)Nc1c(C)cc(C(=O)N2Cc3ccccc3Cc3ccccc32)cc1C` [Example 258, N-[4-[(6,11-Dihydro-5H-dibenz[b,e]azepin-5-yl)-carbonyl]-2,6-dimethylphenyl]-2-methylbenzamide], the inhibition at 10 µM turned out to be 75% in experiment [1] (2 h, 10 μM, rat hepatic, read-out: V1, % at concentration in brackets) and 87% in experiment [2].
Take `Cc1cc(C(=O)N2Cc3ccccc3Cc3ccccc32)cc(C)c1NC(=O)c1ccc(Cl)cc1Cl` [Example 259, N-[4-[(6,11-Dihydro-5H-dibenz[b,e]azepin-5-yl)-carbonyl]-2,6-dimethylphenyl]-2 4-dichlorobenzamide]: in experiment [1], the IC50 worked out at 4000 nM. The inhibition at 10 µM in experiment [2] was 13%.
Consider `Cc1ccccc1C(=O)Nc1ccc(C(=O)N2Cc3ccccc3Cc3ccccc32)c(Cl)c1` [Example 260, N-[4-[(6,11-Dihydro-5H-dibenz[b,e]azepin-5-yl)-carbonyl]-3-chlorophenyl]-2-methylbenzamide], for which the values for the IC50 in experiment [1] and in experiment [2] were 120 nM and 65 nM, respectively.
Take `Cc1ccccc1C(=O)N(CN(C)C)c1ccc(C(=O)N2Cc3ccccc3Cc3ccccc32)cc1` [Example 267, N-[4-[(6,11-Dihydro-5H-dibenz[b,e]azepin-5-yl)-carbonyl]phenyl]-N-[(dimethylamino)methyl]-2-methylbenzamide]: the IC50 in experiment [1] was found to be 26 nM; in experiment [2], 82 nM.
With `Cc1ccccc1C(=O)Nc1ccc(C(=O)N2CCc3cn(C)nc3-c3ccccc32)cc1` [Example 379, N-[4-[(4,5-Dihydro-2-methylpyrazolo[4,3-d][1]-benzazepin-6(2H)-yl)carbonyl]phenyl]-2-methylbenzamide], the IC50 in experiment [1] was 250 nM; in experiment [2] it was 53 nM.
In the same order, the values of `Cc1ncc2c(n1)-c1ccccc1N(C(=O)c1ccc(NC(=O)c3ccccc3C)cc1)CC2` [Example 416, N-[4-[(6,7-Dihydro-2-methyl-5H-pyrimido[5,4-d][1]-benzazepin-7-yl)carbonyl]phenyl]-2-methylbenzamide] are 34500 nM and 1100 nM.
The corresponding values for `O=C(Nc1ccc(C(=O)N2Cc3ccccc3Sc3ccccc32)cc1)c1ccccc1Cl` [Example 448, N-[4-[(Dibenz[b,f][1,4]thiazepin-10(11H)yl)-carbonyl]phenyl]-2-chlorobenzamide] are 73 nM and 190 nM.
Take `CC(C)COc1ccc([N+](=O)[O-])cc1C(=O)Nc1ccc(C(=O)N2Cc3ccccc3Cc3ccccc32)cc1` [Example 453]: the inhibition at 10 µM in experiment [2] was 26%.
On to `Cc1ccc(F)cc1C(=O)Nc1ccc(C(=O)N2CCc3c[nH]nc3-c3ccccc32)c(Cl)c1` [Example 581], for which the IC50 is 740 nM in experiment [1] and 11.3 nM in experiment [2].
The corresponding values for `Cc1ccc(F)cc1C(=O)Nc1ccc(C(=O)N2CCc3c[nH]nc3-c3ccccc32)cc1` [Example 584, N-[4-[(4.5-Dihydropyrazolo[4,3-d][1]benzazepin-6(2H)-yl)carbonyl]phenyl]-5-fluoro-2-methylbenzamide] are 39 nM and 11 nM.
